According to patent US20120040976A1, “SMALL MOLECULE IMMUNOMODULATORS FOR ALZHEIMER'S DISEASE” (HUMAN BIOMOLECULAR RESEARCH INSTITUTE, priority 2008, published 2012):
Values after ≈ are worked out from the molar mass of the structure shown.

Experiments:
[1] = Metabolic stability in human liver microsomes; assay type: in vitro ADME; conditions: read-out: Half life, t1/2 HLM
[2] = Metabolic stability in human S9 fraction; assay type: in vitro ADME; conditions: read-out: Half life, t1/2 S9
MGAT3 = MGAT3 transcription ratio, AD patient / control PBMCs (qPCR); assay type: cell-based, human; parameters: key: Dash (−) indicates minimal effect; (+) indicates a ratio of 1.0-1.5; (++) indicates a ratio of 1.5-2.0; (+++ to ++++) indicates a ratio of 2.0 and above; (+++ to ++++) indicates a ratio of 2.0 and above; conditions: Aβ stimulation
Experimental: (§1) qPCR reactions of cultured monocyte cDNAs. One μL total cellular cDNA per reaction is used in triplicate reactions for each test gene, and for each culture treatment. SYBR-Green reactions were run on a Continuous Fluorescence real-time thermocycler and analyzed. Cycle threshold (Ct) values are recorded for each replicate reaction, and are then averaged and normalized against mean Ct values from one or more control genes. Fold-expression differences relative to untreated cells are determined using the 2^−ΔΔCt method as previously described. Data from the curcumin concentration range are plotted in order to determine EC50 values (concentrations producing one-half maximal stimulant activity), which are used for comparisons of potency between different compounds. Data are also evaluated for each gene with regard to sensitivity, maximally effective concentration of curcuminoid, response to Aβ, and overall magnitude of fold-expression changes.
(§2) MGAT3 and/or TLR transcription were tested by qPCR in human monocyte cells treated with curcuminoids and compared the results to those treated with vehicle (Table 7). As discussed above, activation or up-regulation of macrophage MGAT3 or TLR's results in many functional outcomes, including the enhancement of […] and removal of Aβ, increased apoptosis, secretion of inflammatory cytokines, and other anti-AD antimicrobial activities. […] Thus, the ratio of MGAT3 or TLR transcription upon Aβ stimulation of human monocytes versus vehicle treatment provides an indicator and sensitive method to test the in vitro efficacy of drug candidates. […] The relative biological activity of the curcumin analogs in AD patient and control cells was ascertained in the in vitro Aβ assay described above (see Example 2).

Average solubility = assay type: physicochemical
[3] = Chemical stability (H2O, pH 7.4); assay type: physicochemical
TLR 2 = TLR 2 transcription ratio, AD patient / control PBMCs (qPCR); assay type: cell-based, human; conditions: Aβ stimulation
Experimental: as §1, §2

TLR 4 = TLR 4 transcription ratio, AD patient / control PBMCs (qPCR); assay type: cell-based, human; conditions: Aβ stimulation
Experimental: as §1, §2

TLR 3 = TLR 3 transcription ratio, AD patient / control PBMCs (qPCR); assay type: cell-based, human; conditions: Aβ stimulation
Experimental: as §1, §2

[4] = water (aqueous solution), pH 7.4, read-out: Chemical stability t1/2 pH 7.4 (converted)
[5] = water, H2O, read-out: Chemical stability t1/2 H2O (converted)

Structure (SMILES) | half-life ([1]; human) [min] | half-life [2] [min] | Relative ratio of MGAT3 transcription in AD patient / control PBMC's (MGAT3) | IC50 (Anti-oxidant activity) [µM] | further results
COc1cc(O)ccc1/C=C/C(=O)/C=C(O)/C=C/c1ccc(O)cc1OC [Compound 22, 5-Hydroxy-1,7-bis-(4-hydroxy-2-methoxyphenyl)-hepta-1,4,6-trien-3-one] | 31.5 | 2.4 | ++ ((++) indicates a ratio of 1.5-2.0) |  | 
O=C1C(=Cc2ccc(O)cc2)COCC1=Cc1ccc(O)cc1 [Compound 15, 3,5-bis(4-Hydroxybenzylidene)dihydro-2H-pyran-4(3H)-one] |  |  |  | > 250 | 
O=C(/C=C(O)/C=C/c1ccc(O)c(Cl)c1)/C=C/c1ccc(O)c(Cl)c1 [Compound 24, 1,7-bis-(3-Chloro-4-hydroxyphenyl)-5-Hydroxy-hepta-1,4,6-trien-3-one] |  |  | − |  | 
CN(C)c1ccc(/C=C/C(=O)/C=C(O)/C=C/c2ccc(N(C)C)cc2)cc1 [Compound 20, 1,7-bis-(4-Dimethylaminophenyl)-5-hydroxy-hepta-1,4,6-trien-3-one] | 41.5 | 22.7 | ++++ ((+++ to ++++) indicates a ratio of 2.0 and above) |  | solubility (Average solubility): 0.23 µg/mL (≈ 0.635 µM); Chemical stability H2O (stable/unstable) ([3]; H2O): stable (stability half-lives greater than 5 hours); Chemical stability pH 7.4 (stable/unstable) ([3]; pH 7.4): stable (stability half-lives greater than 5 hours)
O=C1/C(=C(O)/C=C/c2ccc(O)cc2)CCC/C1=C\c1ccc(O)cc1 [Compound 6, 2-(4-Hydroxybenzylidene)-6-(3-(4-hydroxyphenyl)acryloyl)cyclohexanone] | 60.6 | 35.2 | +++ ((+++ to ++++) indicates a ratio of 2.0 and above) | > 250 | half-life [3, 4]: 436 min; half-life [3, 5]: 244 min
COc1ccc(/C=C/C(=O)/C=C(O)/C=C/c2ccc(OC)c(O)c2)cc1O [Compound 21, 5-Hydroxy-1,7-bis-(3-hydroxy-4-methoxyphenyl)-hepta-1,4,6-trien-3-one] | 5 | 6.6 | + ((+) indicates a ratio of 1.0-1.5) |  | 
COc1ccccc1/C=C/C(=O)/C=C(O)/C=C/c1ccccc1OC [Compound 25, 5-Hydroxy-1,7-bis-(2-methoxyphenyl)-hepta-1,4,6-trien-3-one] | 72.8 | 10.9 | ++++ ((+++ to ++++) indicates a ratio of 2.0 and above) |  | Relative ratio of TLR 2 transcription in AD patient / control PBMC's (TLR 2): TLR 2 +++ ((+++ to ++++) indicates a ratio of 2.0 and above); Relative ratio of TLR 4 transcription in AD patient / control PBMC's (TLR 4): TLR 4 + ((+) indicates a ratio of 1.0-1.5); Relative ratio of TLR 3 transcription in AD patient / control PBMC's (TLR 3): TLR 3 ++ ((++) indicates a ratio of 1.5-2.0)
CSc1ccc(/C=C/C(=O)/C=C(O)/C=C/c2ccc(SC)cc2)cc1 [Compound 29, 1,7-bis(4-Methylthiophenyl)-5-hydroxyhepta-1,4,6-trien-3-one] | 97.1 | 75.4 | ++++ ((+++ to ++++) indicates a ratio of 2.0 and above) |  | 
O=C(/C=C(O)/C=C/c1ccccc1)/C=C/c1ccccc1 [Compound 27, 5-Hydroxy-1,7-diphenylhepta-1,4,6-trien-3-one] |  |  | + ((+) indicates a ratio of 1.0-1.5) |  | 
Cc1ccc(/C=C/C(=O)/C=C(O)/C=C/c2ccc(C)cc2)cc1 [Compound 28, 5-Hydroxy-1,7-ditolylhepta-1,4,6-trien-3-one] |  |  | ++ ((++) indicates a ratio of 1.5-2.0) |  | 
CC/C(C(=O)/C=C/c1ccc(N(C)C)cc1OC)=C(O)\C=C\c1ccc(N(C)C)cc1OC [Compound 13, 1,7-Bis(4-(dimethylamino)-2-methoxyphenyl)-4-ethyl-hepta-1,6-diene-3,5-dione] |  |  |  | 67.4 | 
O=C(/C=C(O)/C=C/c1cccc(O)c1)/C=C/c1cccc(O)c1 [Compound 19, 5-Hydroxy-1,7-bis-(3-hydroxyphenyl)-hepta-1,4,6-trien-3-one] | 13.3 | 6.6 | + ((+) indicates a ratio of 1.0-1.5) |  | half-life [3, 4]: 66.2 min; half-life [3, 5]: 22.8 min
CC/C(C(=O)/C=C/c1ccc(N(C)C)cc1)=C(O)\C=C\c1ccc(N(C)C)cc1 [Compound 9, 1,7-bis(4-Dimethylaminophenyl)-4-ethyl-hepta-1,6-diene-3,5-dione] |  |  |  | 55.3 | 
COc1ccc(F)cc1/C=C/C(O)=C/C(=O)/C=C/c1ccc(N(C)C)cc1 [Compound 31] |  |  | ++ ((++) indicates a ratio of 1.5-2.0) |  | Relative ratio of TLR 2 transcription in AD patient / control PBMC's (TLR 2): TLR 2 ++ ((++) indicates a ratio of 1.5-2.0); Relative ratio of TLR 4 transcription in AD patient / control PBMC's (TLR 4): TLR 4 ++ ((++) indicates a ratio of 1.5-2.0); Relative ratio of TLR 3 transcription in AD patient / control PBMC's (TLR 3): TLR 3 ++ ((++) indicates a ratio of 1.5-2.0)
NCCCCC(N)C(=O)Oc1ccc(/C=C/C(=O)C2CCC/C(=C\c3ccc(OC(=O)C(N)CCCCN)cc3)C2=O)cc1 (centres unmarked) [Compound 38] |  | 33.6 | + ((+) indicates a ratio of 1.0-1.5) | > 250 | half-life ([1]; value given in h): > 60 min; Chemical stability H2O (stable/unstable) ([3]; H2O): unstable (stability half-lives less than 5 minutes); Chemical stability pH 7.4 (stable/unstable) ([3]; pH 7.4): unstable (stability half-lives less than 5 minutes)
CC(C)(C)c1ccc(/C=C/C(=O)/C=C(O)/C=C/c2ccc(C(C)(C)C)cc2)cc1 [Compound 30, 1,7-bis(4-tert-Butylphenyl)-5-hydroxyhepta-1,4,6-trien-3-one] |  |  | + ((+) indicates a ratio of 1.0-1.5) | > 250 | Relative ratio of TLR 2 transcription in AD patient / control PBMC's (TLR 2): TLR 2 + ((+) indicates a ratio of 1.0-1.5); Relative ratio of TLR 4 transcription in AD patient / control PBMC's (TLR 4): TLR 4 + ((+) indicates a ratio of 1.0-1.5); Relative ratio of TLR 3 transcription in AD patient / control PBMC's (TLR 3): TLR 3 ++ ((++) indicates a ratio of 1.5-2.0)
CC(C)(C)C(=O)Oc1ccc(/C=C/C(=O)/C=C(O)/C=C/c2ccc(OC(=O)C(C)(C)C)cc2)cc1 [Compound 18, 2,2-Dimethyl-propionic acid 4-{7-[4-(2,2-dimethyl-propionyloxy)-phenyl]-3,5-dioxo-hepta-1,6-dienyl}-phenyl ester] |  |  | − |  | 
O=C(/C=C(\O)CCc1ccc(O)cc1)CCc1ccc(O)cc1 [Compound 5, 5-Hydroxy-1,7-bis(4-hydroxyphenyl)hept-4-en-3-one] |  |  |  | > 250 | Avg. Solubility (Average solubility): insol
CC(C)C(N)C(=O)Oc1ccc(/C=C/C(=O)C2CCC/C(=C\c3ccc(OC(=O)C(N)C(C)C)cc3)C2=O)cc1 (centres unmarked) [Compound 37] |  | 33.2 | ++ ((++) indicates a ratio of 1.5-2.0) | > 250 | half-life ([1]; value given in h): > 60 min; half-life [3, 4]: < 16 min; half-life [3, 5]: 95.9 min
CC(=O)Oc1ccc(/C=C/C(=O)/C=C(O)/C=C/c2ccc(OC(C)=O)cc2)cc1 [Compound 17, Acetic acid 4-[7-(4-acetoxy-phenyl)-5-hydroxy-3-oxo-hepta-1,4,6-trienyl]-phenyl ester] |  |  | − |  | 
COc1ccc(F)cc1/C=C/C(O)=C1\CCC/C(=C\c2cc(F)ccc2OC)C1=O [Compound 11] |  |  | + ((+) indicates a ratio of 1.0-1.5) | > 250 | 
COc1ccc(/C=C/C(=O)/C=C(O)/C=C/c2ccc(OC)cc2)cc1 [Compound 16, 5-Hydroxy-1,7-bis-(4-methoxy-phenyl)-hepta-1,4,6-trien-3-one] | 9 | 10.9 | − |  | 
